Measured values as given in patent US10888092B2, “Ether amines for enhanced sporicidal performance” (Ecolab USA Inc., priority 2016, dated 2021).
Marks after values point to notes of the source that are not given here.

Assays:
[1] = test system: spores; assay: Peracid comparison, ASTM test on fabric swatches (Example 7); assay type: cell-based; conditions: TABLE 9; peracid 200 ppm alone; 10 min at 50° C.
Procedure: (§1) Various ether amines were tested for their efficiency in eradicating bacterial spores from fabric swatches. The fabric swatches were treated according to ASTM protocol for evaluating laundry sanitizers and disinfectants (ASTM E2274-09). The ASTM protocol provides more realistic conditions for laundering textiles, where the tested textiles are imbedded within a bundle of fabrics to mimic the ability of the composition to penetrate the fabric with less exposure to the wash solution.
The use of different peracids was tested. Fabric swatches were treated using the ASTM test described in Example 5. Part I was prepared with 100 ppm ether amine (DA-1618). Part II was prepared with 200 ppm of peroxyacetic acid (“POAA”) or peroxyoctanoic acid (“POOA”). When both Part I and Part II were used, the chemicals were added simultaneously. The exposure time was 10 min at 50° C.

[2] = test system: C. Diff. AATCC 43598; assay: Fabric swatches, consecutive vs. simultaneous treatment (Example 4); assay type: cell-based, Clostridium difficile; conditions: TABLE 6, ether amine 0 ppm 10 min, peracid 300 ppm 5 minutes
Procedure: (§2) Cotton fabric swatches (5 mm×5 mm) were inoculated with C. Diff. AATCC 43598 at 35° C. for 48 hours. After inoculation, the swatches were treated with a first solution comprising part I of the composition at 50° C. for a first exposure time; removed from the first solution with sterile forceps and immediately transferred into a second solution comprising part II of the composition for a second exposure time. In comparative treatments, the solutions included only water. After treatment, the number of surviving spores was evaluated, and the log reduction of spores was compared to the comparative treatment (water only).
Consecutive and simultaneous treatment with low concentration (100 ppm) of ether amine and peracetic acid was tested on fabric squares. The fabric squares were treated as in Example 1 with treatment times of 10 min (part I) and 5 minutes (part II), except with the simultaneous treatment, where ether amine and peracid were mixed prior to treatment and the exposure time was 5 minutes.

[3] = test system: C. Diff. AATCC 43598; assay: Fabric swatches, consecutive treatment, spore log reduction (Example 1); assay type: cell-based, Clostridium difficile; conditions: ether amine 0 ppm 10 min, 50° C.
Procedure: Aqueous solutions of ether amine (Part I) and peracid (Part II) were prepared. Ether amine (octyl/decyloxypropyl-1,3-diaminopropane) solution (Part I) was prepared in deionized water and the pH was adjust to 9.0 using glycolic acid. TOMAMINE DA1214 was used as the ether amine. TOMAMINE DA1214 contains about 50-60% by weight of 1,3-Propanediamine, N-[3-(octylocy)propyl] and about 35-40% by weight of 1,3-Propanediamine, N-[3-(decylocy)propyl], and is available from Air Products and Chemicals, Inc., in Allentown, Pa. Peracid (peracetic acid) solution (Part II) was prepared from TSUNAMI° 100 (15 peracetic acid), available from Ecolab Inc., in St Paul, Minn.
as §2
In Example 1, the first exposure time was 10 minutes (Part I) and the second exposure time was 5 minutes (Part II).

[4] = test system: spores; assay: Fabric swatches (ASTM E2274), simultaneous treatment, hard water (Example 6); assay type: cell-based; conditions: TABLE 8; 500 ppm synthetic hard water, pH 10.5 prior to peracid addition; ether amine 0 ppm, peracid 200 ppm; 10 minutes
Procedure: as §1
Treatment of fabric swatches was tested in pH-adjusted hard water. The wash solution contained 500 ppm synthetic hard water, and the pH was adjusted to 10.5 with NaOH prior to peracid addition. After the addition of the peracid, pH of the wash solution was between 7-8. DA-1214 was used as the ether amine and peracetic acid as the peracid.
The log reduction of spores was measured in the wash solution and on the fabric swatch. The reduction of spores was compared to number of spores in the baseline treatment (water only). The combined treatment time was 10 minutes.

[5] = test system: C. Diff. AATCC 43598; assay: Glass surface, room temperature (Example 3); assay type: cell-based, Clostridium difficile; conditions: TABLE 5, room temperature (approximately 23° C.), ether amine 0 ppm 10 min, peracid 1000 ppm 5 min
Procedure: as §2
(§3) The treatment described above for Example 1 was applied to glass squares (5 mm×5 mm) in a first part of the experiment, where the first exposure time was 10 minutes (part I) and the second exposure time was 5 minutes (part II). In a second part of the experiment, the ether amine and peracid were mixed together prior to treatment, and the exposure time was 15 minutes. Results of the first part of the experiment are shown in TABLE 4A, and of the second part of the experiment in TABLE 4B.
The treatment described in Example 2 was repeated at room temperature (“RT,” approximately 23° C.). Part I was prepared with ether amine DA-1214 and Part II with peroxyacetic acid. The exposure times were 10 min for Part I and 5 min for Part II.

[6] = test system: C. Diff. AATCC 43598; assay: Glass surface, consecutive treatment (Example 2); assay type: cell-based, Clostridium difficile; conditions: TABLE 4A, glass squares, ether amine 0 ppm 10 min
Procedure: as §2, §3

[7] = test system: bacterial spores; assay: Fabric swatches (ASTM E2274-09 protocol), simultaneous treatment (Example 5); assay type: cell-based; conditions: TABLE 7, exposure 10 minutes
Procedure: as §1
Three different ether amine solutions were tested: DA-1214 (octyl/decyloxypropyl-1,3-diaminopropane), DA-1618 (dodecylketradecyloxypropyl-1,3-diaminopropane), and PA-14 (isodecyloxypropyl amine). Part I and Part II were both added together at the start of the experiment for a combined exposure time of 10 minutes. The solutions were made into deionized water as described in Example 1, with the pH adjusted to 9.0 by glycolic acid. However, PA-14 was already neutralized to pH 7 with sodium acetate. The log reduction of spores was measured in the wash solution and on the fabric swatch. The reduction of spores was compared to number of spores in the baseline treatment (water only).

[8] = TABLE 3A, then peracid 300 ppm 5 min
[9] = TABLE 3A, then peracid 500 ppm 5 min
[10] = TABLE 3C, then peracid 300 ppm 5 min
[11] = ether amine 0 ppm, peracid 200 ppm
[12] = ether amine 100 ppm, peracid 0 ppm

SMILES: CCCCCCCC(=O)OO [POOA, peroxyoctanoic acid]
- Carrier log reduction [1]: 5.35
- Wash Solution Log Reduction [1]: 6.00*

SMILES: CC(=O)OO [peracid, peracetic acid]
- Log Reduction [2]: 0.85
- Average Log [3, 8]: 5.36
- Average Survivors [3, 8]: 2.3 × 10^5
- Log Reduction [3, 8]: 1.02
- Average Log [3, 9]: 3.23
- Average Survivors [3, 9]: 1.7 × 10^3
- Log Reduction [3, 9]: 3.15
- Average Log [3, 10]: 5.04
- Average Survivors [3, 10]: 1.1 × 10^5
- Log Reduction [3, 10]: 0.69
- Fabric Swatch Log Reduction [4]: 3.01
- Wash Solution Log Reduction [4]: 5.30
- Average Log [5]: >5.48
- Average Survivors [5]: >300 × 10^3
- Log Reduction [5]: <1.32
- Carrier log reduction [1]: 1.78
- Wash Solution Log Reduction [1]: 4.40
- Average Log ([6]; then peracid 300 ppm 5 min): 5.30
- Average Survivors ([6]; then peracid 300 ppm 5 min): 2.0 × 10^5
- Log Reduction ([6]; then peracid 300 ppm 5 min): 1.36
- Average Log ([6]; then peracid 500 ppm 5 min): 3.38
- Average Survivors ([6]; then peracid 500 ppm 5 min): 2.4 × 10^3
- Log Reduction ([6]; then peracid 500 ppm 5 min): 3.28
- Fabric Swatch Log Reduction [7, 11]: 2.65
- Wash Solution Log Reduction [7, 11]: 5.33

SMILES: CC(C)CCCCCCCOCCCN [PA-14, isodecyloxypropyl amine]
- Fabric Swatch Log Reduction [7, 12]: 0.07
- Wash Solution Log Reduction [7, 12]: 0.17
